Where a SMILES comes first, the peptide text is derived from it. Bridges are numbered along the chain shown (N, C = ends). [ ]: non-standard residue; d: D form. The star is where a group is joined. DOTA = O=C(O)CN1CCN(CC(=O)O)CCN(CC(=O)*)CCN(CC(=O)O)CC1; X1 = O=CCN1CCN(CC(=O)O)CCN(CC(=O)*)CCN(CC(=O)O)CC1; 2Nal = N[C@@H](Cc1ccc2ccccc2c1)C(=O)O; Gly(4-THP) = N[C@H](C(=O)O)C1CCOCC1; aIle = CC[C@@H](C)[C@H](N)C(=O)O; tBuAla = CC(C)(C)C[C@H](N)C(=O)O; Chg = N[C@H](C(=O)O)C1CCCCC1; NMeNle = CCCC[C@H](NC)C(=O)O; Tle = CC(C)(C)[C@H](N)C(=O)O
Key:
DLL3 = biological target: T1, DLL3 (Homo sapiens, UniProt Q9NYJ7); assay: SPR KD, biotinylated human DLL3 on streptavidin chip (Table 8); set-up: biotin (biotinylated); settings: biotinylated human DLL3 on streptavidin sensor chip, 25° C., 1:1 binding model; read-out: SPR KD
T1 sequence (Q9NYJ7 27-618): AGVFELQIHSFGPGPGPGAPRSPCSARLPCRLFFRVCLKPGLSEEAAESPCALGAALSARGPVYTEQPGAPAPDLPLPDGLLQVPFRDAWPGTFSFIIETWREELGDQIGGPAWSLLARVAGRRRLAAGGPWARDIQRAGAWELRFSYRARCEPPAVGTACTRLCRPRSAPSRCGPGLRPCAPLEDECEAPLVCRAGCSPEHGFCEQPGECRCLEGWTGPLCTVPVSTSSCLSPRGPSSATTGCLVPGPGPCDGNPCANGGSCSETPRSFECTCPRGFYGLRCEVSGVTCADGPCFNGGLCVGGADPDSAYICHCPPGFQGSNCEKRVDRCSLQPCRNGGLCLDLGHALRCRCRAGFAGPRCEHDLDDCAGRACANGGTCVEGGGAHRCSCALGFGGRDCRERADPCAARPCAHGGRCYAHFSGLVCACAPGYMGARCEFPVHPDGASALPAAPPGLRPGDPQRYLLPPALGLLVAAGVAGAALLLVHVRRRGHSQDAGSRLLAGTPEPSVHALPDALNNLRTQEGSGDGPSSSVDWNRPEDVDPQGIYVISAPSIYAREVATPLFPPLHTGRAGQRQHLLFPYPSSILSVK
Description: Biotinylated target ligand human DLL3 was immobilized on a streptavidin sensor chip. A reference surface was set up for nonspecific binding and refractive index changes. […] Sensorgram curves were fitted with 1:1 binding model, and affinity and kinetic parameters were obtained using Biacore Insight evaluation 4.0. software.

CT26.DLL3 cells [1] = assay: Internalization of [177Lu]Lu-labeled peptide, CT26.DLL3 cells; format: cell-based; settings: 1 h, 37° C.
Method: (§1) [^177Lu]LuCl3 was received from venders in HCl solution. For every mCi of [^177Lu]LuCl3 added to the reaction vial (1.5 mL Eppendorf vial), ammonium acetate buffer (0.2 M, pH 4.9, 100 μL, containing 1% w/v ascorbic acid and 6% v/v ethanol) and peptide conjugate (1 nmol; also referred to herein as “chelator-peptides”) was added. The pH of the solution was determined to be approximately 5 by using pH strips. The reaction vial was incubated at 80° C., 700 RPM for 17-20 minutes. A sample from the reaction was analyzed by RP-HPLC using an Agilent Infinity II 1260 HPLC to determine reaction completion and radiochemical purity of [^177Lu]Lu-chelator-peptides. HPLC conditions: Waters XBridge BEH C18 Column, 130A, 3.5 μm, 4.6 mm×250 mm; mobile phase: Solvent A=water (with 0.1% formic acid), solvent B=acetonitrile (with 0.1% formic acid). Gradients: 25-45% B in 10 minutes, 45-65% B in 12 minutes, 65-90% in 6 minutes at a flow rate of 0.5 mL/minutes Required amounts of the product was formulated in 1% PBSA for cell studies.
(§2) The study was conducted using SHP-77, CT26.WT, CT26.DLL3, and HEK293.DLL3 cells (Table 9)
(§3) Adherent cell studies: The cells were cultured in appropriate culture media (20 mL) in tissue culture treated T150 flasks at 37° C. and 5% C02. Adherent cells were detached (60-70% confluent) using 5 mL Versene at 37° C. for 3 minutes. After confirming the viability using countess and count of detached cells using Trypan blue, the cells were centrifuged at 4° C. for 5 minutes (1,000 rpm). The cell pellet obtained was washed once with PBS and resuspended in 1% PBSA to obtain the desired cell concentration (5-25 million cells/mL).
(§4) Cell numbers used for the assay were in the range of 5 million cells/condition-25 million cells/condition.
(§5) Internalization: The resuspended cells in 300 μL of 1% PBSA and counted in the gamma counter as “bound fraction” were collected in 1.5 mL Eppendorf tube and pelleted. The pelleted cells were incubated with 300 μL of 50 mM Glycine pH=2.5 for 3 minutes and then pelleted discarding the supernatant. This process was repeated one more time. The pelleted cells were washed with 300 μL of cold 1% PBSA and then resuspended in 300 μl 0.3M NaOH. This was counted in the gamma counter as “internalized fraction”.
(§6) In these Tables, “A” represents % s ≤25; “B” represents 25 <% ≤50; “C” represents % >50.

CT26.DLL3 cells [2] = assay: Cell binding (total uptake) of [177Lu]Lu-labeled peptide, CT26.DLL3 cells; format: cell-based; settings: 1 h, 37° C.
Method: as §1, §2, §3, §4
(§7) Total uptake: Cells were incubated with 300 μL (0.8 μCi) of the incubation buffer (containing radiolabeled peptide [^177Lu]Lu-test peptide) for 1 hour at 37° C. (Table 10). Post incubation, the cells were pelleted and washed 2 times using cold PBS+1% BSA. The supernatant and washes were combined and counted together as “unbound fraction” in a gamma counter. The cells were then resuspended in 300 μL of 1% PBS+1% BSA and counted in the gamma counter as “bound fraction”.
as §6

[3] = tested on: nude mice bearing SHP-77 tumors; assay: Ex vivo biodistribution of radiolabeled peptides (% IA/g) in nude mice bearing SHP-77 tumors; settings: [177Lu]Lu labelling, 24 hours post-injection, intravenous
In short: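 [177Lu]Lu-peptides were given as an IV tail-vein bolus once tumors reached 200-400 mm^3. Injected activity was set per mouse from syringe dose-calibrator readings. At set time points, tissues were weighed and gamma-counted, and counts were decay-corrected to injection and expressed as % IA/g.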

SHP-77 cells [4] = assay: Cell binding (total uptake) of [177Lu]Lu-labeled peptide, SHP-77 cells; format: cell-based; settings: 1 h, 37° C.
Method: as §1, §2, §3
as §3, with “Suspension” for “Adherent”, “CO2.” for “C02. Adherent cells were detached (60-70% confluent) using 5 mL Versene at 37° C. for 3 minutes.”, “viability” for “viability using countess”
as §4, §7, §6

SHP-77 cells [5] = assay: Internalization of [177Lu]Lu-labeled peptide, SHP-77 cells; format: cell-based; settings: 1 h, 37° C.
Method: as §1, §2, §3
as §3, with “Suspension” for “Adherent”, “CO2.” for “C02. Adherent cells were detached (60-70% confluent) using 5 mL Versene at 37° C. for 3 minutes.”, “viability” for “viability using countess”
as §4, §5, §6

Kd (DLL3) [nM]	kidney uptake (% IA/g) [3]	SMILES	% Internalization (out of bound fraction) (CT26.DLL3 cells [1])	% Binding (CT26.DLL3 cells [2])	tumor uptake (% IA/g) [3]	% Binding (SHP-77 cells [4])	% Internalization (out of bound fraction) (SHP-77 cells [5])
< 1	C (“C” represents 0 < % IA/g ≤ 10 in)	CC(=O)N[C@@H](Cc1c[nH]c2ccccc12)C(=O)N[C@H](C(=O)N[C@H](C(=O)N[C@H]1CSSC[C@@H](C(=O)N[C@@H](Cc2c[nH]c3ccccc23)C(=O)N2CCC[C@H]2C(N)=O)NC(=O)[C@H](CC(=O)O)NC(=O)[C@H](CCCCNC(=O)CN2CCN(CC(=O)O)CCN(CC(=O)O)CCN(CC(=O)O)CC2)NC(=O)[C@H](Cc2ccc3ccccc3c2)NC(=O)[C@H](CC(N)=O)NC(=O)[C@H](CC(N)=O)NC1=O)C(C)(C)C)[C@@H](C)O [compound 315, Ac-W-T-(Tbg)-C(3)-N-N-(2Nal)-Lys(DOTA)-D-C(3)-W-P-CONH2] (Ac-WT[Tle]CNN[2Nal]K(DOTA)DCWP-NH2; disulfide 4-10)	C (% >50)	A (% s ≤25)	A (“A” represents 0 < % IA/g ≤ 5 in tumor)	B (25 <% ≤50)	B (25 <% ≤50)
< 1	D (“D” represents % IA/g > 10 in kidney)	CC(=O)N[C@@H](Cc1c[nH]c2ccccc12)C(=O)N[C@H](C(=O)N[C@@H](CC(C)(C)C)C(=O)N[C@H]1CSSC[C@@H](C(=O)N[C@@H](Cc2c[nH]c3ccccc23)C(=O)N2CCC[C@H]2C(N)=O)NC(=O)[C@H](CC(=O)O)NC(=O)[C@H](CCCCNC(=O)CN2CCN(CC(=O)O)CCN(CC=O)CCN(CC(=O)O)CC2)NC(=O)[C@H](Cc2ccc3ccccc3c2)NC(=O)[C@H](CC(N)=O)NC(=O)[C@H](CC(N)=O)NC1=O)[C@@H](C)O [compound 316, Ac-W-T-(t-Bu-Ala)-C(3)-N-N-(2Nal)-Lys(DOTA)-D-C(3)-W-P-CONH2] (Ac-WT[tBuAla]CNN[2Nal]K(X1)DCWP-NH2; disulfide 4-10)	B (25 <% ≤50)	A (% s ≤25)	A (“A” represents 0 < % IA/g ≤ 5 in tumor)	B (25 <% ≤50)	C (% >50)
< 1	D (“D” represents % IA/g > 10 in kidney)	CC(=O)N[C@@H](Cc1c[nH]c2ccccc12)C(=O)N[C@H](C(=O)N[C@H](C(=O)N[C@H]1CSSC[C@@H](C(=O)N[C@@H](Cc2c[nH]c3ccccc23)C(=O)N2CCC[C@H]2C(N)=O)NC(=O)[C@H](CC(=O)O)NC(=O)[C@H](CCCCNC(=O)CN2CCN(CC(=O)O)CCN(CC(=O)O)CCN(CC(=O)O)CC2)NC(=O)[C@H](Cc2ccc3ccccc3c2)NC(=O)[C@H](CC(N)=O)NC(=O)[C@H](CC(N)=O)NC1=O)C1CCOCC1)[C@@H](C)O [compound 317, Ac-W-T-(THPG)-C(3)-N-N-(2Nal)-Lys(DOTA)-D-C(3)-W-P-CONH2] (Ac-WT[Gly(4-THP)]CNN[2Nal]K(DOTA)DCWP-NH2; disulfide 4-10)	C (% >50)	A (% s ≤25)	A (“A” represents 0 < % IA/g ≤ 5 in tumor)	A (% s ≤25)	B (25 <% ≤50)
< 1	D (“D” represents % IA/g > 10 in kidney)	CC(=O)N[C@@H](Cc1c[nH]c2ccccc12)C(=O)N[C@H](C(=O)N[C@H](C(=O)N[C@H]1CSSC[C@@H](C(=O)N[C@@H](Cc2c[nH]c3ccccc23)C(=O)N2CCC[C@H]2C(N)=O)NC(=O)[C@H](CC(=O)O)NC(=O)[C@H](CCCCNC(=O)CN2CCN(CC(=O)O)CCN(CC(=O)O)CCN(CC(=O)O)CC2)NC(=O)[C@H](Cc2ccc3ccccc3c2)NC(=O)[C@H](CC(N)=O)NC(=O)[C@H](CC(N)=O)NC1=O)C1CCCCC1)[C@@H](C)O [compound 318, Ac-W-T-(Chg)-C(3)-N-N-(2Nal)-Lys(DOTA)-D-C(3)-W-P-CONH2] (Ac-WT[Chg]CNN[2Nal]K(DOTA)DCWP-NH2; disulfide 4-10)	C (% >50)	A (% s ≤25)	A (“A” represents 0 < % IA/g ≤ 5 in tumor)	B (25 <% ≤50)	C (% >50)
< 1	D (“D” represents % IA/g > 10 in kidney)	CCCC[C@@H](C(=O)N[C@H]1CSSC[C@@H](C(=O)N[C@@H](Cc2c[nH]c3ccccc23)C(=O)N2CCC[C@H]2C(N)=O)NC(=O)[C@H](CC(=O)O)NC(=O)[C@H](CCCCNC(=O)CN2CCN(CC(=O)O)CCN(CC(=O)O)CCN(CC(=O)O)CC2)NC(=O)[C@H](Cc2ccc3ccccc3c2)NC(=O)[C@H](CC(N)=O)NC(=O)[C@H](CC(N)=O)NC1=O)N(C)C(=O)[C@@H](NC(=O)[C@H](Cc1c[nH]c2ccccc12)NC(C)=O)[C@@H](C)O [compound 320, Ac-W-T-(NMe-Nle)-C(3)-N-N-(2Nal)-Lys(DOTA)-D-C(3)-W-P-CONH2] (Ac-WT[NMeNle]CNN[2Nal]K(DOTA)DCWP-NH2; disulfide 4-10)	B (25 <% ≤50)	A (% s ≤25)	A (“A” represents 0 < % IA/g ≤ 5 in tumor)	A (% s ≤25)	B (25 <% ≤50)
< 1	D (“D” represents % IA/g > 10 in kidney)	CC[C@@H](C)[C@H](NC(=O)[C@@H](NC(=O)[C@H](Cc1c[nH]c2ccccc12)NC(C)=O)[C@@H](C)O)C(=O)N[C@H]1CSSC[C@@H](C(=O)N[C@@H](Cc2c[nH]c3ccccc23)C(=O)N2CCC[C@H]2C(N)=O)NC(=O)[C@H](CC(=O)O)NC(=O)[C@H](CCCCNC(=O)CN2CCN(CC(=O)O)CCN(CC(=O)O)CCN(CC(=O)O)CC2)NC(=O)[C@H](Cc2ccc3ccccc3c2)NC(=O)[C@H](CC(N)=O)NC(=O)[C@H](CC(N)=O)NC1=O [compound 322, Ac-W-T-(Allo-Ile)-C(3)-N-N-(2Nal)-Lys(DOTA)-D-C(3)-W-P-CONH2] (Ac-WT[aIle]CNN[2Nal]K(DOTA)DCWP-NH2; disulfide 4-10)	C (% >50)	A (% s ≤25)	A (“A” represents 0 < % IA/g ≤ 5 in tumor)	A (% s ≤25)	B (25 <% ≤50)

Reference: patent US20250049970A1, “DLL3 TARGETING PEPTIDES AND CONSTRUCTS THEREOF” (MARIANA ONCOLOGY INC., priority 2023, published 2025)
